Experiments:
Type in all cases: in vivo
[1] = test system: boll weevil (Anthonomus grandis); assay: Boll weevil (Anthonomus grandis) egg and larval mortality, insect diet microtiter plate; settings: 120 h, read-out: mortality in comparison with untreated controls
Description: For evaluating control of boll weevil (Anthonomus grandis) the test unit consisted of 96-well-microtiter plates containing an insect diet and 5-10 A. grandis eggs. The compounds were formulated using a solution containing 75% v/v water and 25% v/v DMSO. Different concentrations of formulated compounds were sprayed onto the insect diet at 5 μl, using a custom built micro atomizer, at two replications. After application, microtiter plates were incubated at about 25±1° C. and about 75±5% relative humidity for 5 days. Egg and larval mortality was then visually assessed.

[2] = test system: Southern Armyworm (Spodoptera eridania), 2nd instar larvae; assay: Southern armyworm (Spodoptera eridania) 2nd instar larvae mortality on sprayed lima bean plants; settings: 96 h, read-out: mortality in comparison with untreated controls
Description: The active compounds were formulated by a Tecan liquid handler in 100% cyclohexanone as a 10,000 ppm solution supplied in tubes. The 10,000 ppm solution was serially diluted in 100% cyclohexanone to make interim solutions. These served as stock solutions for which final dilutions were made by the Tecan in 50% acetone:50% water (v/v) into 10 or 20 ml glass vials. A nonionic surfactant (Kinetic®) was included in the solution at a volume of 0.01% (v/v). The vials were then inserted into an automated electrostatic sprayer equipped with an atomizing nozzle for application to plants/insects. Lima bean plants (variety Sieva) were grown 2 plants to a pot and selected for treatment at the 1st true leaf stage. Test solutions were sprayed onto the foliage by an automated electrostatic plant sprayer equipped with an atomizing spray nozzle. The plants were dried in the sprayer fume hood and then removed from the sprayer. Each pot was placed into perforated plastic bags with a zip closure. Ten to 11 armyworm larvae were placed into the bag and the bags zipped closed. Test plants were maintained in a growth room at about 25° C. and about 20-40% relative humidity for 4 days, avoiding direct exposure to fluorescent light (14:10 light:dark photoperiod) to prevent trapping of heat inside the bags. Mortality and reduced feeding were assessed 4 days after treatment, compared to untreated control plants.

[3] = test system: Green Peach Aphid (Myzus persicae); assay: Green peach aphid (Myzus persicae) mortality on sprayed bell pepper plants; settings: 120 h, read-out: mortality in comparison with untreated controls
Description: The active compounds were formulated by a Tecan liquid handler in 100% cyclohexanone as a 10,000 ppm solution supplied in tubes. The 10,000 ppm solution was serially diluted in 100% cyclohexanone to make interim solutions. These served as stock solutions for which final dilutions were made by the Tecan in 50% acetone:50% water (v/v) into 10or 20 ml glass vials. A nonionic surfactant (Kinetic®) was included in the solution at a volume of 0.01% (v/v). The vials were then inserted into an automated electrostatic sprayer equipped with an atomizing nozzle for application to plants/insects. Bell pepper plants at the first true-leaf stage were infested prior to treatment by placing heavily infested leaves from the main colony on top of the treatment plants. Aphids were allowed to transfer overnight to accomplish an infestation of 30-50 aphids per plant and the host leaves were removed. The infested plants were then sprayed by an automated electrostatic plant sprayer equipped with an atomizing spray nozzle. The plants were dried in the sprayer fume hood, removed, and then maintained in a growth room under fluorescent lighting in a 14:10 light:dark photoperiod at about 25° C. and about 20-40% relative humidity. Aphid mortality on the treated plants, relative to mortality on untreated control plants, was determined after 5 days.

[4] = test system: yellow fever mosquito (Aedes aegypti); assay: whole plant or invertebrate; settings: 48 h, larval mortality after 2 days, read-out: mortality in comparison with untreated controls
Description: For evaluating control of yellow fever mosquito (Aedes aegypti) the test unit consisted of 96-well-microtiter plates containing 200 μl of tap water per well and 5-15 freshly hatched A. aegypti larvae. The active compounds were formulated using a solution containing 75% (v/v) water and 25% (v/v) DMSO. Different concentrations of formulated compounds or mixtures were sprayed onto the insect diet at 2.5 μl, using a custom built micro atomizer, at two replications. After application, microtiter plates were incubated at 28+1° C., 80+5% RH for 2 days. Larval mortality was then visually assessed.

[5] = test system: tobacco budworm (Heliothis virescens); assay: Tobacco budworm (Heliothis virescens) egg and larval mortality, insect diet microtiter plate; settings: 120 h, read-out: mortality in comparison with untreated controls
Description: For evaluating control of tobacco budworm (Heliothis virescens) the test unit consisted of 96-well-microtiter plates containing an insect diet and 15-25 H. virescens eggs.
The compounds were formulated using a solution containing 75% v/v water and 25% v/v DMSO. Different concentrations of formulated compounds were sprayed onto the insect diet at 10 μl, using a custom built micro atomizer, at two replications. After application, microtiter plates were incubated at about 28±1° C. and about 80±5% relative humidity for 5 days. Egg and larval mortality was then visually assessed.

[6] = test system: Red Spider Mite (Tetranychus kanzawai); assay: Red spider mite (Tetranychus kanzawai) mortality on sprayed cowpea beans; settings: 72 h, read-out: mortality in comparison with untreated controls
Description: The active compound is dissolved at the desired concentration in a mixture of 1:1 (vol:vol) distilled water:acetone. Add surfactant (Kinetic) is added at a rate of 0.01% (vol/vol). The test solution is prepared at the day of use. Potted cowpea beans of 4-5 days of age are cleaned with tap water and sprayed with 1-2 ml of the test solution using air driven DeVilbiss® hand atomizer at 20-30 psi (≈1.38 to 2.07 bar). The treated plants are allowed to air dry and afterwards inoculated with 30 or more mites by clipping a cassava leaf section from rearing population. Treated plants are placed inside a holding room at about 25-26° C. and about 65-70% relative humidity. Estimate percent mortality is assessed 72 hours after treatment.

CCS(=O)(=O)c1cc(-c2ccc(F)cc2)cnc1-c1cn2c(n1)CSc1c-2cccc1C(F)(F)F [Compound I.2, 2-[3-ethylsulfonyl-5-(4-fluorophenyl)-2-pyridyl]-6-(trifluoromethyl)-4H-imidazo[2,1-c][1,4]benzothiazine]
> 70%: mortality at 10 ppm [1] | mortality at 1 ppm [2] | mortality at 90 ppm [3] | mortality at 80 ppm [4] | mortality at 30 ppm [5]

CCS(=O)(=O)c1cc(N=S(C)(C)=O)cnc1-c1cn2c(n1)COc1c-2cccc1C(F)(F)F [Compound I.5, [5-ethylsulfonyl-6-[6-(trifluoromethyl)-4H-imidazo[2,1-c][1,4]benzoxazin-2-yl]-3-pyridyl]imino-dimethyl-oxo-lambda6-sulfane]
> 70%: mortality at 250 ppm [1] | mortality at 250 ppm [3] | mortality at 250 ppm ([4]; 250 ppm)

CCS(=O)(=O)c1cc(-c2ccc(F)cc2)cnc1-c1cn2c(n1)COc1c-2cccc1C(F)(F)F [Compound I.4, 2-[3-ethylsulfonyl-5-(4-fluorophenyl)-2-pyridyl]-6-(trifluoromethyl)-4H-imidazo[2,1-c][1,4]benzoxazine]
> 70%: mortality at 10 ppm [1] | mortality at 1 ppm [2] | mortality at 80 ppm [4] | mortality at 30 ppm [5]

CCS(=O)(=O)c1cc(-c2ccc(F)cc2)cnc1-c1cn2c(n1)OCc1c-2cccc1C(F)(F)F [Compound I.3, 2-[3-ethylsulfonyl-5-(4-fluorophenyl)-2-pyridyl]-6-(trifluoromethyl)-5H-imidazo[1,2-a][3,1]benzoxazine]
> 70%: mortality at 10 ppm [1] | mortality at 1 ppm [2] | mortality at 90 ppm [3] | mortality at 800 ppm [6] | mortality at 80 ppm [4] | mortality at 30 ppm [5]

CCS(=O)(=O)c1cc(-c2ccc(F)cc2)cnc1-c1cn2c(n1)SCc1c-2cccc1C(F)(F)F [Compound I.1, 2-[3-ethylsulfonyl-5-(4-fluorophenyl)-2-pyridyl]-6-(trifluoromethyl)-5H-imidazo[1,2-a][3,1]benzothiazine]
> 70%: mortality at 10 ppm [1] | mortality at 1 ppm [2] | mortality at 80 ppm [4] | mortality at 30 ppm [5]

Source: patent US20240140965A1, “TRICYCLIC PESTICIDAL COMPOUNDS” (priority 2021, published 2024)
